Experiment [1] has as its system FGF5-GFP hPSC reporter clones (HES-1). Briefly: FACS analysis of FGF5-GFP expression in hPS-FGF5 reporter clones. It counts as cell-based, human. The procedure: hPSC culture—hPSC culture—hPSC lines HES-1, HES-2 (10), HADC100, HADC102 (36) and H7 (9) were cultured on human foreskin feeders in serum free medium as described (30, 87). hPSC culturing in suspension was performed as reported (31) with minor modifications of the culture medium that was composed of Neurobasal medium, 14% KO-SR, L-glutamine 2 mM, 50 units/ml penicillin, 50 μg/ml streptomycin, 1% nonessential amino acids (all from Invitrogen, Carlsbad, Calif., USA). The medium was supplemented with FGF2 20 ng/ml, and activin A 25 ng/ml (both from Peprotech, Rocky Hill, N.J., USA), and laminin 0.5 μg/ml (Sigma-Aldrich, St. Louis, Mo., USA). For hPSC culturing on mouse LN111, 3-D Culture Matrix Laminin I (CULTREX, TREVIGEN, #3446-005-01, Gaithersburg, Md., USA) was diluted to a concentration of 1 mg/ml. Tissue culture dishes were coated with LN111, incubated overnight at 37° C. to promote matrix gelling, and washed with PBS. hPSCs were cultured on LN111 in a chemically defined medium composed of DMEM/F12, B27 supplement (1:50), N2 supplement (1:100) 2 mM L-glutamine, 50 units/ml penicillin, 50 μg/ml streptomycin (all from Invitrogen), and supplemented with 20 ng/ml bFGF (Peprotech). The cells were cultured in 5% CO2, 5% O2 incubator They were passaged every 7 days as small clusters by treatment with 1 mg/ml collagenase type IV (Invitrogen), and plated in a medium containing 5 μM ROCK inhibitor. hPSC culture under naïve conditions was performed using the 5iLFA protocol (20).
Generation of FGF5 reporter cell lines—a 3 kb fragment of human FGF5 promoter (GeneBank accession number NT_016354) was amplified from HES-1 genomic DNA using Expand High Fidelity PCR System (Roche Applied Science, Penzberg, Germany) with primers CG ? TTGCTTTCCTGGCTGGGAG (SEQ ID NO: 1) (EcoRI) and CA ? AGCCTCGGGGAAGAGAAGG (SEQ ID NO: 2) (ApaI). […] Single colonies were picked, replated, and analyzed for the integrity of the integrated reporter vector. […]
(In flow cytometry, cells or beads pass a laser one at a time.)

Experiment [2] has as its system hPSCs. Put plainly: Undifferentiated propagation and PGC differentiation of hPSCs on laminin. The following applies: HES-2 hPSCs. It counts as cell-based, human. The method, then: LN-hPSCs were cultured on mouse LN111, 3-D Culture Matrix Laminin I (CULTREX, TREVIGEN, #3446-005-01, Gaithersburg, Md., USA). 0.175 ml diluted LN111 (1:14 to a coating concentration of 0.43 mg/ml) was used to coat a well of a 6-well culture dish, leaving a margin of 2-3 mm at the well edge (a final concentration of ˜8 microgram/cm^2). The coated dishes were incubated from 4 hours to 4 days, at 37° C., and washed with PBS before use. LN-hPSCs were cultured in a medium composed of DMEM/F12, B27 supplement (1:50), N2 supplement (1:100), 2 mM L-glutamine, 50 units/ml penicillin, 50 μg/ml streptomycin (all from Invitrogen), and supplemented daily with 20 ng/ml FGF2 (Peprotech). Cells were passaged every 5-6 days using 1.5 mg/ml collagenase type IV (Invitrogen). 5 μM ROCK inhibitor (Y-27632, Peprotech) was added for the first day after passaging.
hPSCs were cultured on human recombinant LN521 (BIOLAMINA, Sundbyberg, Sweden). Coating of culture dishes with hrLN521 was performed according to the manufacturer's instructions (Coating concentration ˜0.45 microgram/cm^2). Cells were cultured in the same medium used for culturing LN-hPSCs, and passaged with collagenase type IV.
PGC differentiation of hPSCs in suspension—LN-hPSCs and hPSCs cultured on hrLN-521 were dissociated into a single-cell suspension using TrypLE Select Enzyme (Invitrogen). Primed hPSCs were first dissociated from the MEF feeders by treatment with collagenase type IV, followed by dissociation into single cells by TrypLE Select Enzyme. 2000-3000 cells were seeded into a microwell of AggreWell™800 24-well plate (STEMCELL Technologies), and cultured as EBs in suspension, in PGCLC differentiation medium as described elsewhere (Irie et al., 2015).

“LN111: mouse LN111, 3-D Culture Matrix Laminin I (CULTREX, TREVIGEN), coating of culture dishes”: the “percentage of FGF5-GFP expressing cells” value in experiment [1] (reporter clone #1 cultured on LN111) is recorded as 86%±2; in experiment [1] (reporter clone #2 cultured on LN111), 90%±1; in experiment [1] (reporter clone #3 cultured on LN111), 79%±3. Moreover, the “competence to initiate germ cell specification” value in experiment [2] is listed as “competent to initiate germ cell specification”.

The values are drawn from patent US12467038B2, “Methods of culturing human pluripotent cells” (Hadasit Medical Research Services and Development Ltd., priority 2019, dated 2025).
